Data reported in article PMC7180948, “New Insights into 4-Anilinoquinazolines as Inhibitors of Cardiac Troponin I–Interacting Kinase (TNNi3K)” (Molecules, 2020).

Legend:
Assay in all cases: biochemical
Parameters in all cases: KINOMEscan competition binding panel (Eurofins DiscoverX), single concentration, percent inhibition
Conditions in all cases: read-out: 15 at 1 µM % inhibition
DRAK2 = biological target: T1, DRAK2 (Homo sapiens, UniProt O94768)
T1 construct: gene STK17B
Procedure, shortened: (§1)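 Selectivity profile from a KINOMEscan run against >400 human kinases; test concentration 1 µM.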

ERBB2 = ERBB2 (Homo sapiens, UniProt P04626)
Chain of ERBB2 (P04626 whole entry): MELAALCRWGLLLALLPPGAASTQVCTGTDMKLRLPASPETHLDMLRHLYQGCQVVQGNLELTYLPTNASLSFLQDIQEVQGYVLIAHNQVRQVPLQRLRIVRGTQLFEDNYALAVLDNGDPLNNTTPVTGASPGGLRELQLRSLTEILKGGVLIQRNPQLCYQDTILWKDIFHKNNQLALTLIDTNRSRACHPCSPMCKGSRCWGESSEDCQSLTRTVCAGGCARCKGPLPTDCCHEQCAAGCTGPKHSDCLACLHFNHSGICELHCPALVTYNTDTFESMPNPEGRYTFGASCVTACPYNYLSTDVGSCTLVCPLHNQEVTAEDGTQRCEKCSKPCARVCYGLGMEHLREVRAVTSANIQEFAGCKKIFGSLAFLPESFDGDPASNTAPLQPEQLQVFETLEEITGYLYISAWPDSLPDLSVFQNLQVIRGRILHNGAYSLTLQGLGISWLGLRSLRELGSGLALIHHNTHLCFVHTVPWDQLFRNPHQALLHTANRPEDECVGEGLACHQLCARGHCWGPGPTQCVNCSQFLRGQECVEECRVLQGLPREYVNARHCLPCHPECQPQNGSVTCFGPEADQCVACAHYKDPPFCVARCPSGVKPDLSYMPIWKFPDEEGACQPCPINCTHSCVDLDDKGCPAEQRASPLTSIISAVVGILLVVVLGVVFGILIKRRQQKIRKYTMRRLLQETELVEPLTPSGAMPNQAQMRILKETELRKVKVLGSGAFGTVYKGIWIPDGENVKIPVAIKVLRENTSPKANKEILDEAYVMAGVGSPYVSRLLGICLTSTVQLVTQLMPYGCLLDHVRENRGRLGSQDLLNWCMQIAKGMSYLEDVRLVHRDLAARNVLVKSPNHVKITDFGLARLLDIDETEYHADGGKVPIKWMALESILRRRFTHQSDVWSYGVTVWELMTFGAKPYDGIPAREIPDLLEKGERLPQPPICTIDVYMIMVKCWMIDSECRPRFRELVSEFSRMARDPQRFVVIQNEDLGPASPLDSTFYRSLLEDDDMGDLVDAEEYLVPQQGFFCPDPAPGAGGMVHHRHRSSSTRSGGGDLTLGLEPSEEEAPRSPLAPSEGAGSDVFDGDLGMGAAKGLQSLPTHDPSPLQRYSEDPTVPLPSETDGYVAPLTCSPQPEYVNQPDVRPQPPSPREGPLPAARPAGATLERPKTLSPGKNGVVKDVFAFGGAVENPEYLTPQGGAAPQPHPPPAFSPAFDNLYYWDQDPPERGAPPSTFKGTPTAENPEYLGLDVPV
Procedure, shortened: as §1

ERK5 = biological target: T2, ERK5 (Homo sapiens, UniProt Q13164)
T2 construct: gene MAPK7
Procedure, shortened: as §1

PIK3C2G = PIK3C2G (Homo sapiens, UniProt O75747)
Procedure, shortened: as §1

[1] = biological target: T3, ABL1(F317L)-nonphosphorylated (Homo sapiens, UniProt P00519, F317L)
T3 construct: nonphosphorylated
Procedure, shortened: as §1

BIKE = biological target: T4, BIKE (Homo sapiens, UniProt Q9NSY1)
T4 construct: gene BMP2K
Procedure, shortened: as §1

PDGFRA = PDGFRA (Homo sapiens, UniProt P16234)
Procedure, shortened: as §1

HIPK4 = HIPK4 (Homo sapiens, UniProt Q8NE63)
Procedure, shortened: as §1

CAMK1D = CAMK1D (Homo sapiens, UniProt Q8IU85)
Procedure, shortened: as §1

DAPK1 = DAPK1 (Homo sapiens, UniProt P53355)
Chain of DAPK1 (P53355 whole entry): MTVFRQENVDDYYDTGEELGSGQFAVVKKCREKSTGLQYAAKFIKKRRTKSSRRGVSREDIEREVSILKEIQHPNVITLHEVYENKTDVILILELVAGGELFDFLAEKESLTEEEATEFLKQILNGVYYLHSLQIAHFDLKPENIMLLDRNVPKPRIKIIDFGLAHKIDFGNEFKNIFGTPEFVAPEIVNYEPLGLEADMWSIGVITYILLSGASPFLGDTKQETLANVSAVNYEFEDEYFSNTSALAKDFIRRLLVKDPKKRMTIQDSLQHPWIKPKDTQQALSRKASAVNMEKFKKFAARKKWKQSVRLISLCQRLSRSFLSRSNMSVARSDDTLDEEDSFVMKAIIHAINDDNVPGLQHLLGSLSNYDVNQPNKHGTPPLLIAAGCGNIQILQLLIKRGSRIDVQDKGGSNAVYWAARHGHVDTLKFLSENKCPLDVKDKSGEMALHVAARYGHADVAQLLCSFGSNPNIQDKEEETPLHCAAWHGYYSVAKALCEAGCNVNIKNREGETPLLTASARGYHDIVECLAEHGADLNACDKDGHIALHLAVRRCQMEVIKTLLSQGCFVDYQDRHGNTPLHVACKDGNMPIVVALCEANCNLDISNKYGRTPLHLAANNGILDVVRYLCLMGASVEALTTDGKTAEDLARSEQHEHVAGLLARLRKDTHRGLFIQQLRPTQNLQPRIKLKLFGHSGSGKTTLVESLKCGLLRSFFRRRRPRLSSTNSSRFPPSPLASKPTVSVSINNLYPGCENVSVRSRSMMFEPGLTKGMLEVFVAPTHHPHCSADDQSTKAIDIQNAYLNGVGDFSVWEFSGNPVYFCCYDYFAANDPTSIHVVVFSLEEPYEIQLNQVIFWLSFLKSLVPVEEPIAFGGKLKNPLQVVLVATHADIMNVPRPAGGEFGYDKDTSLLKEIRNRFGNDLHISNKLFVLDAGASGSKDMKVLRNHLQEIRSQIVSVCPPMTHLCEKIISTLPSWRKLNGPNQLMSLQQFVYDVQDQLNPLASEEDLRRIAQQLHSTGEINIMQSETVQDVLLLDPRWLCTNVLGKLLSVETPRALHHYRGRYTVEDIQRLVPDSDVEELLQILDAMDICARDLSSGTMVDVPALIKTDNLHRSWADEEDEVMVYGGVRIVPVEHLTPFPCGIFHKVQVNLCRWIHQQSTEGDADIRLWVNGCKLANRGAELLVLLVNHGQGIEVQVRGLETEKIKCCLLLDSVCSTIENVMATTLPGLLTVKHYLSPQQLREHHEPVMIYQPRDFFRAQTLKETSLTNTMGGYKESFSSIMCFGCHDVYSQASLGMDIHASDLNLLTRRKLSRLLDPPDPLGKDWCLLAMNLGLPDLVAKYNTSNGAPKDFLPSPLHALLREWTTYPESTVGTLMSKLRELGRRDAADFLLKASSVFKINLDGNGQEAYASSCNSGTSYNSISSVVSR
Procedure, shortened: as §1

CSF1R-autoinhibited = CSF1R-autoinhibited (Homo sapiens, UniProt P07333)
Procedure, shortened: as §1

TXK = TXK (Homo sapiens, UniProt P42681)
Procedure, shortened: as §1

KIT(D816H) = KIT(D816H) (Homo sapiens, UniProt P10721, D816H)
Procedure, shortened: as §1

KIT(D816V) = KIT(D816V) (Homo sapiens, UniProt P10721, D816V)
Procedure, shortened: as §1

ERBB4 = ERBB4 (Homo sapiens, UniProt Q15303)
Chain of ERBB4 (Q15303 whole entry): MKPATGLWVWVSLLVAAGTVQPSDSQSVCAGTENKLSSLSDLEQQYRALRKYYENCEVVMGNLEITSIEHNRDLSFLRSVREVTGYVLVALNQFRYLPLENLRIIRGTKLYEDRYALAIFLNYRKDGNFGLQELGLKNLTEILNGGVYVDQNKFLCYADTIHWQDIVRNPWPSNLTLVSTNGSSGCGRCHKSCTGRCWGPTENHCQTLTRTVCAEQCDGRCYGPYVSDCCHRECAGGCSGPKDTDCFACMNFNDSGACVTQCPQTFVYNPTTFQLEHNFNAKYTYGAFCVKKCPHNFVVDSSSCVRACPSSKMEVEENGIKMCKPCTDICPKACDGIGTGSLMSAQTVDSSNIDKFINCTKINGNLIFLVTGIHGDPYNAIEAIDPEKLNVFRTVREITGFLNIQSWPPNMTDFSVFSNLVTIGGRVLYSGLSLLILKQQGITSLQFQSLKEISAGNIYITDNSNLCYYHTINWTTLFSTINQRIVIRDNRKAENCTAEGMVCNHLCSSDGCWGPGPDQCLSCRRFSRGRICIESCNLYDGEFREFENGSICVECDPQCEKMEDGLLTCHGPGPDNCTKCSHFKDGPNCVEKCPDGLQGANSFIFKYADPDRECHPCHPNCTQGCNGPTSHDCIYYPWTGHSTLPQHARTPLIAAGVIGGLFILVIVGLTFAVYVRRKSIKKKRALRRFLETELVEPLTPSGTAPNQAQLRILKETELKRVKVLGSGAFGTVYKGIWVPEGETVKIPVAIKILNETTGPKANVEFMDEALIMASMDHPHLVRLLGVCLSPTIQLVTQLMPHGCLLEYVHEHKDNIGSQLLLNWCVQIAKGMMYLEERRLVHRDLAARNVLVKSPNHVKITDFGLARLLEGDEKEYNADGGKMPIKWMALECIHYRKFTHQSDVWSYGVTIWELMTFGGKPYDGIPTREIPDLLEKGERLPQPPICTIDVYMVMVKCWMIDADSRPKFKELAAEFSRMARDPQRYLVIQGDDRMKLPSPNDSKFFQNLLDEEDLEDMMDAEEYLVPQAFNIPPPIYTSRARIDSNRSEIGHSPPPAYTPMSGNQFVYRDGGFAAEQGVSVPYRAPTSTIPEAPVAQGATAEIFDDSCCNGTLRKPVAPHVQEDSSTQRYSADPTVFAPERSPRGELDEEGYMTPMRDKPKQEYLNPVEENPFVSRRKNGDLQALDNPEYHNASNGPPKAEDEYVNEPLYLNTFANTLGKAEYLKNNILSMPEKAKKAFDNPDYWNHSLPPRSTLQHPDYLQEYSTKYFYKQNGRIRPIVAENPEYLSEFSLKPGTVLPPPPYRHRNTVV
Procedure, shortened: as §1

EPHA7 = EPHA7 (Homo sapiens, UniProt Q15375)
Procedure, shortened: as §1

SYK = SYK (Homo sapiens, UniProt P43405)
Procedure, shortened: as §1

SNARK = biological target: T5, SNARK (Homo sapiens, UniProt Q9H093)
T5 construct: gene NUAK2
Procedure, shortened: as §1

MET = MET (Homo sapiens, UniProt P08581)
Procedure, shortened: as §1

PCTK1 = biological target: T6, PCTK1 (Homo sapiens, UniProt Q00536)
T6 construct: gene CDK16
Procedure, shortened: as §1

S6K1 = biological target: T7, S6K1 (Homo sapiens, UniProt P23443)
T7 construct: gene RPS6KB1
Procedure, shortened: as §1

DDR2 = DDR2 (Homo sapiens, UniProt Q16832)
Procedure, shortened: as §1

EPHB3 = EPHB3 (Homo sapiens, UniProt P54753)
Chain of EPHB3 (P54753 whole entry): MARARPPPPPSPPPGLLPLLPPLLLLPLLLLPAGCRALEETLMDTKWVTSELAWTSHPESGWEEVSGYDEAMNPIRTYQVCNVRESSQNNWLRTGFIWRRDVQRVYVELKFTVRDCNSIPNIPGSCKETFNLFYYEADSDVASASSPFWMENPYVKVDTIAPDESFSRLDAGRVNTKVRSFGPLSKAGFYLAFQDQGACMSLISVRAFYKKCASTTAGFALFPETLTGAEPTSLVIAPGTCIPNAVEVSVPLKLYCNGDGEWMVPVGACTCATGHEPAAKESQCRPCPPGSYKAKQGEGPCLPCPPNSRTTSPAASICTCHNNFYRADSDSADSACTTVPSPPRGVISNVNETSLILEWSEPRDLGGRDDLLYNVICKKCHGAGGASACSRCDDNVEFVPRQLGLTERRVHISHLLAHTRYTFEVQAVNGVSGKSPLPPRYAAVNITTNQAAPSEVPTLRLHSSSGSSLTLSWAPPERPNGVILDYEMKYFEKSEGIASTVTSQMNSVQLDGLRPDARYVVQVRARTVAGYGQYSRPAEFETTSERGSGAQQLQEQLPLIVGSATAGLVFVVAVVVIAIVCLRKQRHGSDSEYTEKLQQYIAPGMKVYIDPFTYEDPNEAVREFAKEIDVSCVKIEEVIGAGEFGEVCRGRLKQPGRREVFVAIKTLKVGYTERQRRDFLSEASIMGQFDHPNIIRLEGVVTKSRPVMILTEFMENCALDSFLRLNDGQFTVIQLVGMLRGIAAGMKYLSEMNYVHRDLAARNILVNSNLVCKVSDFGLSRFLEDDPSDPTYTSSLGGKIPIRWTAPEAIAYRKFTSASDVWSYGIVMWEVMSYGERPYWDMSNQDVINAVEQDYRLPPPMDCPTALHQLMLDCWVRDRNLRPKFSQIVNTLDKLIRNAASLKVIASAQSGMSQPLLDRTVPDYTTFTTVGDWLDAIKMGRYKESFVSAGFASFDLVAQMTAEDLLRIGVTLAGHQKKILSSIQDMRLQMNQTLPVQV
Procedure, shortened: as §1

PIM2 = PIM2 (Homo sapiens, UniProt Q9P1W9)
Procedure, shortened: as §1

inhibition at 1 µM (DRAK2): 0% | inhibition at 1 µM (ERBB2): 1% | inhibition at 1 µM (ERK5): 5% | inhibition at 1 µM (PIK3C2G): 22% | inhibition at 1 µM [1]: 33% | inhibition at 1 µM (BIKE): 0% | inhibition at 1 µM (PDGFRA): 10% | inhibition at 1 µM (HIPK4): 0% | inhibition at 1 µM (CAMK1D): 0% | inhibition at 1 µM (DAPK1): 7% | inhibition at 1 µM (CSF1R-autoinhibited): 32% | inhibition at 1 µM (TXK): 5% | inhibition at 1 µM (KIT(D816H)): 16% | inhibition at 1 µM (KIT(D816V)): 4% | inhibition at 1 µM (ERBB4): 0% | inhibition at 1 µM (EPHA7): 27% | inhibition at 1 µM (SYK): 0% | inhibition at 1 µM (SNARK): 18% | inhibition at 1 µM (MET): 0% | inhibition at 1 µM (PCTK1): 22% | inhibition at 1 µM (S6K1): 20% | inhibition at 1 µM (DDR2): 38% | inhibition at 1 µM (EPHB3): 0% | inhibition at 1 µM (PIM2): 0%
SMILES: CNS(=O)(=O)c1ccc(N(C)C)c(Nc2nc(C)nc3cc(OC)c(OC)cc23)c1 [compound 15, 3-((6,7-dimethoxy-2-methylquinazolin-4-yl)amino)-4-(dimethylamino)-N-methylbenzenesulfonamide]
